In one experiment the test system is LS123 cells. As to the kind of experiment: Ras cellular assay, growth of cells with K-Ras G12S mutation (CellTiter-Glo). In kind it is cell-based. To be noted: Homo sapiens, LS-123; KRAS G12S cell line; read-out: IC50 against LS123 cells. As for the experimental part: For example, this assay can be also used to assess selective growth inhibition of a mutant Ras protein relative to a wildtype or different mutant Ras protein.
A549 (ATCC CRL-185) and LS123 (ATCC CRL-255) cell lines comprise a G12S mutation and can be used to assess Ras cellular signaling in vitro, e.g., in response to treatment with a compound described herein. A549 culture medium is prepared with RPMI-1640 and 10% heat-inactivated FBS. LS123 culture medium is prepared with RPMI-1640 and 10% heat-inactivated FBS. A CellTiter-Glo (CTG) luminescent based assay (Promega) is used to assess growth of the cells, as a measurement of the ability of the compounds herein to inhibit Ras signaling in the cells. The cells (e.g., 800 per well) are seeded in their respective culture medium in standard tissue culture-treated 384-well format plates (Falcon #08-772-116) or ultra-low attachment surface 384-well format plates (S-Bio #MS-9384WZ). […] Cell viability can be monitored (e.g., approximately 6 days later) according to the manufacturer's recommended instructions, where CellTiter-Glo reagent is added (e.g., approximately 10 μL), vigorously mixed, covered, and placed on a plate shaker (e.g., approximately for 20 min) to ensure sufficient cell lysis prior to assessment of luminescent signal. The IC50 values are determined using the four parameter fit. […]
Background: In ATP-based viability assays light output follows the ATP content of the culture.

In the next experiment the target is T1, KRAS G12D (Homo sapiens, UniProt P01116, G12D).
T1 construct: made in house; host or cells: E. coli, e.g. BL21 (DE3)
T1 sequence (P01116 1-188 isoform P01116-2 G12D): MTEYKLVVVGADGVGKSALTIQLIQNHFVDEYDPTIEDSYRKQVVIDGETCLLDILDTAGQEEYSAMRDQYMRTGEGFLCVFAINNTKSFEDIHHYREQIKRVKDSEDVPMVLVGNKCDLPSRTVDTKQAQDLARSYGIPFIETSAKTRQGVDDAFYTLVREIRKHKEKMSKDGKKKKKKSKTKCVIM
As to the kind of experiment: HTRF assay, KRAS G12D interaction with SOS1. In kind it is biochemical.

The next experiment addresses T2, KRAS WT (Homo sapiens, UniProt P01116).
T2 construct: made in house; host or cells: E. coli, e.g. BL21 (DE3)
The experiment can be described thus: HTRF assay, wildtype KRAS interaction with SOS1. The experiment is classed as biochemical. As to conditions: bins <500 nM / 500 nM to 1000 nM, read-out: Inhibition of KRAS WT (IC50).

The subject of a further experiment is MiaPaca2 cells. As to the kind of experiment: Ras cellular assay, growth of cells with K-Ras G12C mutation. In kind it is cell-based. To be noted: Homo sapiens, MIA PaCa-2. A digest of the protocol:
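Anchorage-independent growth: G12C-mutant MIA PaCa-2 plated in soft agar, time-zero plate read the next day when compound was dosed (final DMSO 0.3%). After growth to day 10, MTS-type absorbance at 490/660 nm relative to time zero gave IC50 via four-parameter fitting.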

For a further experiment, the target named is T3, KRAS G12V (Homo sapiens, UniProt P01116, G12V).
T3 construct: made in house; host or cells: E. coli, e.g. BL21 (DE3)
T3 sequence (P01116 1-188 isoform P01116-2 G12V): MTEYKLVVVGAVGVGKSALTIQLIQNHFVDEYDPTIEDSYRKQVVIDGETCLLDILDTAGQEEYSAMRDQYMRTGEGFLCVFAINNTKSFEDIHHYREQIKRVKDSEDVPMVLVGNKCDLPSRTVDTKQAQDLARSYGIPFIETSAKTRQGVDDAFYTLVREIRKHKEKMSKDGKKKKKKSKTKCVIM
As to the kind of experiment: HTRF assay, KRAS G12V interaction with SOS1. In kind it is biochemical.

The next experiment addresses T4, KRAS G12S (Homo sapiens, UniProt P01116, G12S).
T4 construct: made in house; host or cells: E. coli, e.g. BL21 (DE3)
The experiment can be described thus: HTRF assay, KRAS G12S interaction with SOS1. In kind it is biochemical. Background: In TR-FRET formats the signal depends on donor and acceptor labels being close together.

Setting [1] is: bins <500 nM / 500 nM to 1000 nM, read-out: Inhibition of KRAS G12D (IC50).
[2] abbreviates: bins <500 nM / 500 nM to 1000 nM, read-out: Inhibition of KRAS G12V (IC50).
[3] abbreviates: bins <500 nM / 500 nM to 1000 nM, read-out: Inhibition of KRAS G12S (IC50).
The mark [4] stands for this setting: cell proliferation assay, bins ≤500 nM / >500 nM, read-out: Inhibition of MiaPaca2 Cells (IC50).

Read-outs that look alike come from different tables or passages of the source. Where only a bound is given, the exact number is not on record here.

T4 sequence (P01116 1-188 isoform P01116-2 G12S): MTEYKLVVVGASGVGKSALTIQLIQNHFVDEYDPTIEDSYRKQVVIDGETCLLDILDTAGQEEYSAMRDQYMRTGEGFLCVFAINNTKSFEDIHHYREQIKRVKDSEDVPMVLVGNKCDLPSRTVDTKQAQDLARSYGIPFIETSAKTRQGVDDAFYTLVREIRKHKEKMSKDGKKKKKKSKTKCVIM
T2 sequence (P01116 1-188 isoform P01116-2): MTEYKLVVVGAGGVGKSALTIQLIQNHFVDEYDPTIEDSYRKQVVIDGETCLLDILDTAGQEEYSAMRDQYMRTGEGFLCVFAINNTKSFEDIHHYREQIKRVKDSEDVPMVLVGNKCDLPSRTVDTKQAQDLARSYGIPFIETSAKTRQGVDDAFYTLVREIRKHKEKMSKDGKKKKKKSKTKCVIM

In the case of `CCN(c1nc(OCC23CCCN2C(COc2cc(C(F)(F)F)ncn2)CC3)nc2c(F)c(-c3ccc(F)c4sc(N)c(C#N)c34)c(Cl)cc12)[C@@H]1CCN(C(=O)n2cc(C)nc2C)[C@@H]1C` (single isomer, unassigned) [Compound 197], the IC50 in the experiment on LS123 cells was 4.6 nM; at KRAS G12D (setting [1]), under 500 nM; on KRAS G12D (read-out: IC50 against KRAS G121), under 5 nM; on KRAS WT it was under 500 nM; in the experiment with MiaPaca2 cells (KRAS G12C cell line, read-out: IC50 against MiaPaca2 cells) it was 0.42 nM; at KRAS G12V (setting [2]), under 500 nM. Moreover, the IC50 at KRAS G12V (read-out: IC50 against KRAS G12V) is under 5 nM; on KRAS G12S (setting [3]), under 500 nM; on KRAS G12S (read-out: IC50 against KRAS G12S), under 5 nM.

As for `CN(c1nc(OC[C@@]23CCCN2C[C@H](F)C3)nc2c(F)c(-c3ccc(F)c4sc(N)c(C#N)c34)c(Cl)cc12)[C@H]1CCN(C(=O)n2ccnc2)C1` [Compound 218, 4-(4-(((S)-1-(1H-imidazole-1-carbonyl)pyrrolidin-3-yl)(methyl)amino)-6-chloro-8-fluoro-2-(((2R,7aS)-2-fluorotetrahydro-1H-pyrrolizin-7a(5H)-yl)methoxy)quinazolin-7-yl)-2-amino-7-fluorobenzo[b]thiophene-3-carbonitrile], the half-maximal inhibitory concentration (IC50) at KRAS G12D (setting [1]) was under 500 nM; at KRAS WT, under 500 nM; in the experiment on MiaPaca2 cells (setting [4]) it was at most 500 nM; on KRAS G12V (setting [2]) it was under 500 nM; at KRAS G12S (setting [3]), under 500 nM.

With `C[C@@H]1[C@H](N(C)c2nc(OC[C@@]34CCCN3C[C@H](F)C4)nc3c(F)c(-c4ccc(F)c5sc(N)c(C#N)c45)c(Cl)cc23)CCN1C(=O)n1cc(C#N)cn1` [Compound 220, 1-((2R,3R)-3-((7-(2-amino-3-cyano-7-fluorobenzo[b]thiophen-4-yl)-6-chloro-8-fluoro-2-(((2R,7aS)-2-fluorotetrahydro-1H-pyrrolizin-7a(5H)-yl)methoxy)quinazolin-4-yl)(methyl)amino)-2-methylpyrrolidine-1-carbonyl)-1H-pyrazole-4-carbonitrile], the half-maximal inhibitory concentration (IC50) at KRAS G12D (setting [1]) was under 500 nM; on KRAS WT, under 500 nM; in the experiment with MiaPaca2 cells (setting [4]), at most 500 nM; on KRAS G12V (setting [2]), under 500 nM; on KRAS G12S (setting [3]) it was under 500 nM.

What is called IC50 is the concentration that inhibits the measured activity by half.

The values are drawn from US20260217735A1, “HETEROCYCLES AND USES THEREOF” (Kumquat Biosciences Inc., priority 2023, published 2026).
